Source: US9944618B2, “Inhibiting neurotransmitter reuptake” (Mayo Foundation for Medical Education and Research, priority 2013, dated 2018)
Like-named read-outs stand apart in the source and are kept apart here.

Tests used:
[1] = biological target: human norepinephrine transporter (Homo sapiens (Human), UniProt P23975); assay: Human NET (norepinephrine transporter) uptake assay; type: cell-based; conditions: read-out: hNET Ki
How it was run: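 HEK293F cells transfected with human NET were thawed, plated at about 60,000 cells/well and held at 37 °C for at least 3 h. Compounds came from 10 mM DMSO stocks, with nomifensine as control, in 1×HBSS/0.02 M HEPES. Uptake was followed with a neurotransmitter transporter dye, dosed as % of vendor reconstitution, in triplicate.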

[2] = biological target: human dopamine transporter (Homo sapiens (Human), UniProt Q01959); assay: Human DAT (dopamine transporter) uptake assay; type: cell-based; conditions: read-out: hDAT Ki
Description: This protocol was designed to measure inhibition of uptake by the human dopamine transporter. […] The Assay Buffer (AB) was 1×HBSS and 0.02 M HEPES.
(§1) The HEK293F cells were transfected with the human dopamine transporter and frozen in 1 mL aliquots at about 1E+07 cells/mL. On the day of the experiment, the cells were removed from −80° C. or liquid nitrogen and thawed in a room temperature water bath. The cells were dilute to about 1-2E+06 with Freestyle medium. A 1 mL sample (1:2 dilution) was prepared, and the cells were counted. The cells were spun at 1100 rpm for 5 minutes, and the medium was aspirated off. The cells were resuspend in medium at 1.5E+06 cells/mL for about 60,000 cells per well. 40 μL of cells were dispensed per well in the Biocoat plates. The plates were spun at 1100 rpm for 1 minute to improve homogeneity of the cell layer and were incubated at 37° C. for a minimum of 3 hours.
12 μL of test compound (10 mM) in DMSO was added to the wells, and nomifensine was used as a control. […] The neurotransmitter transporter dye was prepared in AB prior to use.
Due to the proprietary nature of the dye formulation, all dye concentrations were expressed as a percentage of the vendor-recommended dye reconstitution. Thus, the above calculations were valid when both [dye] and K1 were expressed in the same units (%). Compounds were tested in triplicate (n=3).

[3] = biological target: human serotonin transporter (Homo sapiens (Human), UniProt P31645); assay: Human SERT (serotonin transporter) uptake assay; type: cell-based; conditions: read-out: hSERT Ki
Description: This protocol was designed to measure inhibition of uptake by the human serotonin transporter. […] The Assay Buffer (AB) was […] and 0.02 M HEPES.
as §1, with “serotonin” for “dopamine”
12 μL of test compound (10 mM) in DMSO was added to the wells, and nomifensine was used as a control. Fluoxetine (final assay concentration of 10 μM) was used for background signal. The neurotransmitter transporter dye was prepared in AB prior to use.
Due to the proprietary nature of the dye formulation, all dye concentrations were expressed as a percentage of the vendor-recommended dye reconstitution. Thus, the above calculations were valid when both [dye] and Km were expressed in the same units (%). Compounds were tested in triplicate (n=3).

[4] = biological target: CYP3A4 (Homo sapiens (Human), UniProt P08684); assay: Cytochrome P450 inhibition assay, recombinant CYP3A4 (BFC substrate); type: in vitro ADME; conditions: recombinant enzyme
[5] = biological target: CYP2D6 (Homo sapiens (Human), UniProt P10635); assay: Cytochrome P450 inhibition assay, recombinant CYP2D6 (MAMC substrate); type: in vitro ADME; conditions: recombinant enzyme
Description: Recombinant enzymes, 3A4 and 2D6, generated using the ABL yeast expression system were used. […] The assay mixture also included K2HPO4 (pH 7.4; conc. 0.1 M) and NADPH (conc. 1 mM). The incubation time was 30 minutes, and the reference inhibitor was A-naphthoflavone. For CYP2D6, the enzyme amount was 2 pmol per well, and the substrate (7-methoxy-4-(aminomethyl)-coumarin; MAMC) was used at 20 μM. The assay mixture also included K2HPO4 (pH 7.4; conc. 0.1 M) and NADPH (conc. 0.06 mM). The incubation time was 35 minutes, and the reference inhibitor was quinidine.
Briefly, 0.6 μL of serially diluted compound was added to 75 μL water. 10 μL of diluted compound in water was then added to each assay plate. 20 μL of a K2HPO4, enzyme, and substrate mixture was added. After 10 minutes of room temperature pre-incubation, 10 μL of NADPH was added, and the plates were placed at 37° C. for 30 or 35 minutes depending on the enzyme being tested. After the incubation was complete, 20 μL of 0.1% Tris/ACN was added to the plate. The plate was read on a FluorStar fluorescence plate reader.

[6] = pKa of basic centres (Table 1); type: physicochemical
[7] = first base, e.g., an aliphatic primary, secondary, or tertiary amine, read-out: pKa (Base 1)
[8] = second base in the same molecule (if present), read-out: pKa (Base 2)

Chain of human norepinephrine transporter (P23975 whole entry): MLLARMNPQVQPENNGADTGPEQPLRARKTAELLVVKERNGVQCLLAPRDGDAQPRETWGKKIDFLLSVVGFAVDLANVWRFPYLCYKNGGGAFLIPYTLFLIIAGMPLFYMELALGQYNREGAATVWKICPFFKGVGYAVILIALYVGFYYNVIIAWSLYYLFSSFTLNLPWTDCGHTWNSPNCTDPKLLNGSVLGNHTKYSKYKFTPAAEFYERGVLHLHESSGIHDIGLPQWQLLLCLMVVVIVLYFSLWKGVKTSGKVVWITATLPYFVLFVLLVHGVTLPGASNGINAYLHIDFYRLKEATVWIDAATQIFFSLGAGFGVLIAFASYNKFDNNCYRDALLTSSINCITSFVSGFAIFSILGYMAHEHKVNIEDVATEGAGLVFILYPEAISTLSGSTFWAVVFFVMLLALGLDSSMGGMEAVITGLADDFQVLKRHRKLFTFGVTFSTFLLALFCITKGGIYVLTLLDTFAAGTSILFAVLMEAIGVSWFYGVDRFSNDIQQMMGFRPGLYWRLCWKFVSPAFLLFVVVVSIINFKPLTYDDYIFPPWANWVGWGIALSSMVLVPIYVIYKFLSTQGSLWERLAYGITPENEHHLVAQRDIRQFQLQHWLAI
Chain of human dopamine transporter (Q01959 whole entry): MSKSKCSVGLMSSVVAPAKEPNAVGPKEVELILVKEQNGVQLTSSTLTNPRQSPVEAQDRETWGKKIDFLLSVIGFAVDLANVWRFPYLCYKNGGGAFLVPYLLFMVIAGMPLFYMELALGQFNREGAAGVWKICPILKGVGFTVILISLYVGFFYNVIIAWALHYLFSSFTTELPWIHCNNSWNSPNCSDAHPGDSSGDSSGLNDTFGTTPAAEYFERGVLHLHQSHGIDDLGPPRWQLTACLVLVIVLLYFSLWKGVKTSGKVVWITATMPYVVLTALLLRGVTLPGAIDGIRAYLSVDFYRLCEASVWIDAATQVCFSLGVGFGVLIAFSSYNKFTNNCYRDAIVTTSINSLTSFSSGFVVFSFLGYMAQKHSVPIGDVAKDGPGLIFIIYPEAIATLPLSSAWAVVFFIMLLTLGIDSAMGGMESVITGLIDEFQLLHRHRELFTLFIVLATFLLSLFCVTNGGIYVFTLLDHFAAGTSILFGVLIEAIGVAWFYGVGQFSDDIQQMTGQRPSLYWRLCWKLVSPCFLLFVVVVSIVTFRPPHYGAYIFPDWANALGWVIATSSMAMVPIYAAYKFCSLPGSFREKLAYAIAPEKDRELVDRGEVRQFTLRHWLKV
Chain of CYP3A4 (P08684 whole entry): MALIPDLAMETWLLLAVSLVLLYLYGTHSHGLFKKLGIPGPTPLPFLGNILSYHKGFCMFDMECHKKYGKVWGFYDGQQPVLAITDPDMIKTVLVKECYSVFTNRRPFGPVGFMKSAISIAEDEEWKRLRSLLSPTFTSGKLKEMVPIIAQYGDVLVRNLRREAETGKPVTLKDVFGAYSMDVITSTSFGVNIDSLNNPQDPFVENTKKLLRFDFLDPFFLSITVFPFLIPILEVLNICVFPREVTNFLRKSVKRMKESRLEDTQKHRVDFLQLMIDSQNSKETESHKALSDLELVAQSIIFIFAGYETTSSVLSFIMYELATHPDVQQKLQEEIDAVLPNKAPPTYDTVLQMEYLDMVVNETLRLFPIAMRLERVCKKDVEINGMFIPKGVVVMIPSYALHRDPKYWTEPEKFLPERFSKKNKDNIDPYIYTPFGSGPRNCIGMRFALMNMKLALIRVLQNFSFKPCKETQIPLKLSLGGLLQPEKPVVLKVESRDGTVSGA
Chain of human serotonin transporter (P31645 whole entry): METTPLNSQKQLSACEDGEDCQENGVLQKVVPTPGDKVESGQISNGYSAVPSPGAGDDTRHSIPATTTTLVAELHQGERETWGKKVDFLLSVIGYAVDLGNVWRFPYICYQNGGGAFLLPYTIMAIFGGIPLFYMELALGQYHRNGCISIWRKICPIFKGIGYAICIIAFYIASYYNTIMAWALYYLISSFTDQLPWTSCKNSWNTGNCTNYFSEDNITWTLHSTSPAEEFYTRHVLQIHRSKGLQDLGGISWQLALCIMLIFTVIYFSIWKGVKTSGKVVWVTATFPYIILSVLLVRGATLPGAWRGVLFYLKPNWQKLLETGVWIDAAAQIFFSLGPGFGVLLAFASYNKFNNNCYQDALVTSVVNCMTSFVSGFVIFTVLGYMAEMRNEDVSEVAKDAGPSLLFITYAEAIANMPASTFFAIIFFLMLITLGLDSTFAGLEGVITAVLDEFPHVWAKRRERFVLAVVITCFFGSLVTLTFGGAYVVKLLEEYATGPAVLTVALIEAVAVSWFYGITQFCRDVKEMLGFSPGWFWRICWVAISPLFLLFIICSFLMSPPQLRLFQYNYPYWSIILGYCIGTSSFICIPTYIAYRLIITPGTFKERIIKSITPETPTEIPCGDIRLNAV
Chain of CYP2D6 (P10635 whole entry): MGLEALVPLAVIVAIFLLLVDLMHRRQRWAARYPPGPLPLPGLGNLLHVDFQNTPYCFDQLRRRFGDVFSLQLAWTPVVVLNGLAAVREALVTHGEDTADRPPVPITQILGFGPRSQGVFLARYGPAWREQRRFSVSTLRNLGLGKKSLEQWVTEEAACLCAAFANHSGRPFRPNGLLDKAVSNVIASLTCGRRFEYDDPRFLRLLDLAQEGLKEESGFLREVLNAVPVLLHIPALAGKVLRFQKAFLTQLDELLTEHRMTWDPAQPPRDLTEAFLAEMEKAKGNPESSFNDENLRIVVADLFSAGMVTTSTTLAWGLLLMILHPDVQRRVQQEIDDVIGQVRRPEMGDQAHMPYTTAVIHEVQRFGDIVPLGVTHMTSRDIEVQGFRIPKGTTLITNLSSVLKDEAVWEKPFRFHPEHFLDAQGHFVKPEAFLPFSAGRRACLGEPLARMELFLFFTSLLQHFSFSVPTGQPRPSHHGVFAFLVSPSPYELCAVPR

Row | Structure (SMILES) | Ki [1] [nM] | Ki [2] [nM] | Ki [3] [nM] | IC50 [4] [nM] | IC50 [5] [nM] | pKa [6, 7] | pKa [6, 8]
1 | CNC[C@@H](c1ccc(Cl)c(Cl)c1)[C@@H](O)c1ccsc1 [Compound 106] | 80.6 | 19.7 | 742 | 20000 | 3900 | 9.5 | 
2 | NCC(c1ccc2ccccc2c1)C(O)c1ccc(F)cc1F (centres unmarked) [Compound 107] | 82.2 | 126 | 727 | 19000 | 2400 | 8.5 | 
3 | CNC[C@@H](c1ccc(Cl)c(Cl)c1)[C@@H](O)c1cncc(OC)c1 [Compound 109] | 120 | 66.7 | 646 | 20000 | 1100 | 9.3 | 4.5
4 | NCC[C@@H](Cc1cccnc1)c1ccc(Cl)c(Cl)c1 [Compound 112] | 148 | 273 | 154 | 18000 | 2900 | 8.6 | 5.1
5 | CNC[C@@H](c1ccc2ccccc2c1)[C@@H](OCC(N)=O)c1ccccc1 [Compound 117] | 236 | 12.9 | 796 | 20000 | 5500 | 9.6 | 
6 | CNC[C@@H](c1ccc(Cl)c(Cl)c1)[C@@H](O)c1cccc(N)c1 [Compound 119] | 257 | 75.5 | 1780 | 7900 | 4100 | 9.4 | 4.3
7 | CNC[C@@H](c1ccc(Cl)c(Cl)c1)[C@@H](O)c1cccc(SC)c1 [Compound 120] | 262 | 88.5 | 662 | 9000 | 2400 | 9.4 | 
8 | CNC[C@@H](c1ccc(Cl)c(Cl)c1)[C@@H](O)c1cccc(NS(=O)(=O)C(F)(F)F)c1 [Compound 121] | 270 | 5 | 2850 | 20000 | 20000 | 9.4 | 
9 | CNC[C@@H](c1ccc2ccccc2c1)[C@@H](O)c1cncc(OC)c1 [Compound 122] | 273 | 49.6 | 124 | 20000 | 3400 | 9.6 | 4.5
10 | CNC[C@@H](c1ccc(Cl)c(Cl)c1)[C@@H](O)c1cccc(N2CCOCC2)c1 [Compound 125] | 371 | 65.3 | 725 | 4800 | 2400 | 9.4 | 5.1
11 | NC[C@@H](c1ccc2ccccc2c1)[C@@H](O)c1ccc(Cl)nc1 [Compound 126] | 500 | 125 | 107 | 20000 | 3900 | 8.3 | 
12 | CNC[C@H](c1ccc(Cl)c(Cl)c1)[C@@H](O)c1cccc(NS(=O)(=O)C(F)(F)F)c1 [Compound 127] | 649 | 80.5 | 3280 | 20000 | 15000 | 9.4 | 
13 | CNC[C@@H](c1ccc(Cl)c(Cl)c1)[C@@H](O)c1ccccc1[S+](C)[O-] (some centres unmarked) [Compound 128] | 2630 | 193 | 3040 | 20000 | 19000 | 9.4 | 
14 | NC[C@@H](Cc1ccccc1O)c1ccc2ccccc2c1 [Compound 133] | 34.6 | 52.7 | 116 | 10000 | 580 | 9.4 | 
15 | CNC[C@H](c1ccc2ccccc2c1)[C@@H](O)c1cc(F)cc(F)c1 [Compound 141] | 32.6 | 91.9 | 296 | 20000 | 370 | 9.6 | 
